We go through four molecules from ChEMBL document CHEMBL3046719, “Photooxygenation of Nimonol, a Tetranortriterpenoid from Azadirachta indica. A. Juss” (2002).

Common to all, as to type: functional
The test system of test [1] is Spodoptera litura. Kind of test: Antifeedant activity against Spodoptera litura at 1 ug.
The test system of test [2] is Spodoptera litura. Description: Antifeedant activity against Spodoptera litura at 0.5 ug.
Test [3] relates to Spodoptera litura. Description: Antifeedant activity against Spodoptera litura at 5 ug.

Consider `CC(=O)O[C@@H]1[C@H](O)[C@H]2C(C)(C)C(=O)C=C[C@]2(C)[C@H]2CC[C@]3(C)C(=CC[C@H]3c3ccoc3)[C@]12C` [NIMONOL], for which the Activity amounted to 55.7% with Spodoptera litura [1], 32.5% with Spodoptera litura [2] and 32.2% in the test on Spodoptera litura [3].
On to `C/C=C(\C)C(=O)O[C@H]1C[C@@H](OC(C)=O)[C@@]2(C(=O)OC)CO[C@H]3[C@@H](O)[C@@](C)([C@]45O[C@@]4(C)[C@@H]4C[C@H]5O[C@@H]5OC=C[C@@]54O)[C@H]4[C@]1(CO[C@]4(O)C(=O)OC)[C@@H]32` [AZADIRACHTIN A], for which the Activity in the test on Spodoptera litura [1] is recorded as 85.5%; in the test on Spodoptera litura [2], 83.3%; in the test on Spodoptera litura [3], 100%.
Turning to `CC(=O)O[C@@H]1[C@H](O)[C@H]2C(C)(C)C(=O)C=C[C@]2(C)[C@H]2CC[C@@]3(C)[C@H](C4=CC(O)OC4=O)C[C@@H]4O[C@@]43[C@]12C` (some centres not stated) [NIMONOLIDE], the Activity with Spodoptera litura [1] was determined as 80.2%; in the test on Spodoptera litura [2], 67.5%; in the test on Spodoptera litura [3] it was 82.5%.
In the case of `CC(=O)O[C@@H]1[C@H](O)[C@H]2C(C)(C)C(=O)C=C[C@]2(C)[C@H]2CC[C@@]3(C)[C@H](C45CC(O)OC4O5)C[C@@H]4O[C@@]43[C@]12C` (some centres not stated) [NIMONOL PP2], the results for the Activity in the test on Spodoptera litura [1], with Spodoptera litura [2] and with Spodoptera litura [3] were 68.7%, 55.3% and 73.5%, respectively.
